SMILES strings stand for the structures. The source made the active and inactive calls. The rule behind the calls is not given here. Bounds are passed on as bounds.

For assay [1], the target named is T1, Kappa-type opioid receptor (Homo sapiens, UniProt P41145). In words: Agonist activity at human kappa opioid receptor expressed in CHO cells assessed as stimulation of [35S]GTPgammaS binding. It counts as functional, cell-based. For orientation: GTPγS resists hydrolysis and so accumulates on activated G proteins.
T1 sequence (P41145 whole entry): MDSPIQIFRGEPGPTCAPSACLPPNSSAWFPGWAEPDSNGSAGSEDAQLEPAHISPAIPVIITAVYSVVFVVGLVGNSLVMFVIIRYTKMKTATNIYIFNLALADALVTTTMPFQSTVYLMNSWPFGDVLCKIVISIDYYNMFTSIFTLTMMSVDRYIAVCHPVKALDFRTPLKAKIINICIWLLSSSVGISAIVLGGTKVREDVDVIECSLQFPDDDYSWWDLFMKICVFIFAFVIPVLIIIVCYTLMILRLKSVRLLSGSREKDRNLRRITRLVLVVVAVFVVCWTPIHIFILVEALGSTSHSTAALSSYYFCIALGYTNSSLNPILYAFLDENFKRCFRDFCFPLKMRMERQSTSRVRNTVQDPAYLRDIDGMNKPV
Assay [2] has as its target T2, Mu-type opioid receptor (Homo sapiens, UniProt P35372). In words: Antagonist activity at human mu opioid receptor expressed in CHO cells assessed as inhibition of DAMGO-induced [35S]GTPgammaS binding at 10 uM. The class given is functional, cell-based.
The target in assay [3] is T2, Mu-type opioid receptor. In words: Agonist activity at human mu opioid receptor expressed in CHO cells assessed as stimulation of [35S]GTPgammaS binding relative to basal [35S]GTPgammaS binding. It counts as functional, cell-based.
Assay [4] has as its target T2, Mu-type opioid receptor. Nature of the assay: Antagonist activity at human mu opioid receptor expressed in CHO cells assessed as inhibition of DAMGO-induced [35S]GTPgammaS binding. The class given is functional, cell-based.
For assay [5], the target named is Delta-type opioid receptor (Homo sapiens, UniProt P41143). Nature of the assay: Displacement of [3H]Naltrindole from human delta opioid receptor expressed in CHO cells. The class given is cell-based. Background: In a radioligand displacement assay an active substance lowers the binding of a labelled ligand.
Delta-type opioid receptor, sequence (P41143 whole entry): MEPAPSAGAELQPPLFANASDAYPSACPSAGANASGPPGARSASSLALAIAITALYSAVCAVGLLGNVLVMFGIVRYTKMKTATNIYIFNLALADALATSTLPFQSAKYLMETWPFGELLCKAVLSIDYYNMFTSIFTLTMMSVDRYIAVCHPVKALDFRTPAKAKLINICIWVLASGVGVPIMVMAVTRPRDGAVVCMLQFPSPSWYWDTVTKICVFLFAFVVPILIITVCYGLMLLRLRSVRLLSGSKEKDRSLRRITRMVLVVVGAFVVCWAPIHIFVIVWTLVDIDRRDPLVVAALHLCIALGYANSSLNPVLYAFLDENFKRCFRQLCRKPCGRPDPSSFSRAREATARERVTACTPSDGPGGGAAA
Assay [6] has as its target T2, Mu-type opioid receptor. Nature of the assay: Displacement of [3H]DAMGO from human mu opioid receptor expressed in CHO cells. The class given is cell-based.
The test system of assay [7] is CHO. In words: Ratio of Ki for human delta opioid receptor to Ki for human kappa opioid receptor expressed in CHO cells. It counts as cell-based.
In assay [8] the test system is CHO. Nature of the assay: Ratio of Ki for human mu opioid receptor to Ki for human kappa opioid receptor expressed in CHO cells. It counts as cell-based.
Assay [9] addresses T1, Kappa-type opioid receptor. Nature of the assay: Displacement of [3H]U69,593 from human kappa opioid receptor expressed in CHO cells. It counts as cell-based.
Assay [10] deals with T2, Mu-type opioid receptor. Nature of the assay: Agonist activity at human mu opioid receptor expressed in CHO cells assessed as stimulation of [35S]GTPgammaS binding. The class given is functional, cell-based.
Assay [11] can be described thus: Displacement of [3H]Naltrindole from human delta opioid receptor expressed in CHO cells.

T2 sequence (P35372 whole entry): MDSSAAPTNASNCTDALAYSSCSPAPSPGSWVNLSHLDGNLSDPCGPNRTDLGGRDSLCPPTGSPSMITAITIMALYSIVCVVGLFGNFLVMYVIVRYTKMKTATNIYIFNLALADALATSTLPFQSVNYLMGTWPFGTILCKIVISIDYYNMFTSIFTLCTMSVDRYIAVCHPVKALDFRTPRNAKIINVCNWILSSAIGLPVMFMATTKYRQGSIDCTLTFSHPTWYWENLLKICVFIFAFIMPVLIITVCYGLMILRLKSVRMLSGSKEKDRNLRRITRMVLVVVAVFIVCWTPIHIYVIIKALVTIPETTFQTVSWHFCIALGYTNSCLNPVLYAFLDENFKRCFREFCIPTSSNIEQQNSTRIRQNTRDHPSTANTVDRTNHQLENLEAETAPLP

For orientation: EC50 means the midpoint of the concentration-response curve. A word on the Emax: it is the greatest response seen or fitted, relative to the assay's reference. For the molecule `C[C@H]1C2Cc3cc4nn[nH]c4cc3[C@@]1(C)CCN2CC1CC1`, the EC50 in assay [1] was 77 nM. The Imax at Mu-type opioid receptor [2] is 73%. Besides, the Emax on Mu-type opioid receptor [3] is under 20%.

What is called IC50 is the concentration that gives 50% inhibition. As to `C[C@@H](NC(=O)[C@@H](N)Cc1ccc(O)cc1)C(=O)NCC(=O)N(C)[C@@H](Cc1ccccc1)C(=O)NCCO` [DAMGO], the Imax result on Mu-type opioid receptor [4] was “inactive”. The IC50 entry on Mu-type opioid receptor [4] (cho) was “Not Active”.

In general, Ki refers to the dissociation constant of the complex between target and ligand, obtained from inhibition or displacement. A lower Ki goes with a stronger hold on the target. In the case of `C[C@H]1C2Cc3cc4nc(O)[nH]c4cc3[C@@]1(C)CCN2CC1CC1`, the inhibition constant (Ki) in assay [5] was 730 nM; at Mu-type opioid receptor [6], 60 nM; in [9] it was 12 nM. The values for the Ratio Ki in the assay with CHO [7] and in the assay with CHO [8] were 61 and 5, respectively.

For the molecule `C[C@H]1C2Cc3ccc4[nH]nnc4c3[C@@]1(C)CCN2CC1CC1`, the EC50 in assay [1] came to 8.6 nM. At Mu-type opioid receptor [4], the Imax came to 98%. Further, the IC50 on Mu-type opioid receptor [4] (read-out: IC50) turned out to be 99 nM. In addition, at Mu-type opioid receptor [3], the maximal effect (Emax) amounted to 0.58%.

On to `C[C@H]1[C@H]2Cc3ccc(O)cc3[C@]1(C)CCN2CC1CC1` [CYCLAZOCINE], for which the half-maximal effective concentration (EC50) in assay [1] is 1.3 nM. The inhibition constant Ki worked out at 2 nM in [5] and 0.07 nM in [9].

Regarding `C[C@H]1C2Cc3ccc4[nH]cnc4c3[C@@]1(C)CCN2CC1CC1`, the Ki is 680 nM in [5], 9.5 nM at Mu-type opioid receptor [6] and 0.92 nM in assay [9]. The results for the Ratio Ki with CHO [7] and in the assay with CHO [8] were 740 and 10, respectively.

Consider `C[C@H]1C2Cc3cc4[nH]cnc4cc3[C@@]1(C)CCN2CC1CC1`, for which the EC50 amounted to 4.7 nM in [1] and 9.8 nM at Mu-type opioid receptor [10]. The Ki in assay [5] came to 5.1 nM; on Mu-type opioid receptor [6] it was 0.31 nM; in assay [9], 0.063 nM. The IC50 at Mu-type opioid receptor [4] (read-out: IC50) stood at 170 nM.

`C[C@H]1C2Cc3cc4cc[nH]c4cc3[C@@]1(C)CCN2CC1CC1`: the inhibitory constant (Ki) at Mu-type opioid receptor [6] stood at 18 nM; in assay [11], 250 nM; in assay [9], 7 nM. The Ratio Ki in the assay on CHO [7] turned out to be 36; in the assay on CHO [8], 3.

Take `C[C@H]1C2Cc3cc4nc[nH]c4cc3[C@@]1(C)CCN2CC1CC1`: the Imax on Mu-type opioid receptor [4] was 89%. At Mu-type opioid receptor [3], the maximal response (Emax) was found to be 22%.

As to `Cc1nc2c3c(ccc2[nH]1)CC1[C@H](C)[C@]3(C)CCN1CC1CC1`, the inhibition constant Ki in [5] stood at 160 nM; at Mu-type opioid receptor [6], 2.5 nM; in assay [9] it was 0.51 nM. Besides, the Ratio Ki in the assay on CHO [7] was 310; in the assay on CHO [8], 5.

Turning to `Cc1nc2cc3c(cc2[nH]1)[C@@]1(C)CCN(CC2CC2)C(C3)[C@@H]1C`, the concentration for a half-maximal effect (EC50) in [1] is 5.8 nM; at Mu-type opioid receptor [10] it was 18 nM. The Ki in [5] was 18 nM; at Mu-type opioid receptor [6], 0.77 nM; in assay [9], 0.05 nM. The Imax at Mu-type opioid receptor [4] worked out at 100%. Further, the IC50 on Mu-type opioid receptor [4] (read-out: IC50) was determined as 11000 nM. Moreover, the Emax on Mu-type opioid receptor [3] amounted to 55%.

Source of the values: ChEMBL document CHEMBL1136834 (Bioorg Med Chem Lett, 2009).
